From patent publication US20150352114A1, “MITOTIC KINESIN Eg5 INHIBITING ANTICANCER AGENTS” (THE CLEVELAND CLINIC FOUNDATION, priority 2014, published 2015)

Experiments:
[1] = tested on: GSCs from patient derived xenograft 08-387; assay: Measurement of microtubule dynamics, EB1-EGFP; format: cell-based, human; details: 200 nM; 7 hours
Description: GSCs from patient derived xenograft 08-387 were cultured in Neurobasal Media, as previously described. Cells were plated on tissue culture dishes coated with GelTrex (Gibco®, Life Technologies, Carslbad, Calif.) and transfected with EB1-EGFP plasmid using FuGene® HD transfection reagent (Promega Corporation, Madison, Wis.) in a 3:1 (FuGene:DNA) ratio. Cells were transferred to GelTrex-coated 35 mm No. 1.5 glass MatTek dishes (MatTek Corporation, Ashland, Mass.) at a density of 50,000 cells per dish 48 hours following transfection, and allowed to adhere overnight prior to imaging. Dynamics measurements were obtained at 30 minutes and 7 hours following addition of vehicle (DMSO) or ispinesib (200 nM) to cell culture media.
Streaming time-lapse images of EB1-EGFP-expressing cells were acquired at 300 ms per frame for 1 minute (200 total frames) at using a Nikon TiE epifluorescence microscope (Nikon Instruments Inc., Melville, N.Y.) equipped with a Zyla 5.5 sCMOS camera (Andor Technology Ltd., Belfast, Ireland) under control of NIS Elements software (Nikon). Fluorescence illumination during imaging was provided by a SpectraX Light Engine® (Lumencor Inc., Beaverton, Oreg.) and a GFP/mCherry filter set (Chroma Technology Corp., Bellows Falls, Vt.). […]

matched GSCs and NSTCs = assay: SubG1 (apoptotic) population by flow cytometry for propidium iodide; format: cell-based, human; details: 3 nM; four days; three xenograft patient specimens
Description: The half maximal effective concentration of ispinesib for acutely dissociated and MACS sorted matched GSCs and NSTCs was determined by plating, in triplicate, 1,000 cells per well of a 96 well plate pre-coated with GelTrex in growth-factor free Neuralbasal media. The next day, cells were exposed to 2-fold increasing concentrations of ispinesib spanning from 0 to 32 nM. Viability was measured at 72 hours using CellTiter-Glo ATP-based assay (Promega, Madison, Wis.) read on a luminometer (Perkin-Elmer, Waltham, Mass.). For long-term viability assays, 500 cells per well were plated in triplicate into 96-well plates as above. The next day, cells were exposed to 3 nM ispinesib or vehicle (DMSO) and viability was measured daily for 5 days using CellTiter-Glo. Day 0 reading were taken immediately after addition of drug or vehicle. SubG1 for GSCs and NSTCs was determined by flow cytometry for propidium iodide and gated as the events below the 2N G1 peak of the resulting histogram. Analysis was done following treatment of 100,000 cells with vehicle or 3 nM ispinesib. Cells were fixed at Day 0 through Day 4 in 100% cold ethanol and simultaneously processed for flow analysis with 20,000 events analyzed per condition.

Eg5 = target: T1, Eg5 (Homo sapiens, UniProt P52732); details: cited from earlier work
T1 sequence (P52732 1-1056): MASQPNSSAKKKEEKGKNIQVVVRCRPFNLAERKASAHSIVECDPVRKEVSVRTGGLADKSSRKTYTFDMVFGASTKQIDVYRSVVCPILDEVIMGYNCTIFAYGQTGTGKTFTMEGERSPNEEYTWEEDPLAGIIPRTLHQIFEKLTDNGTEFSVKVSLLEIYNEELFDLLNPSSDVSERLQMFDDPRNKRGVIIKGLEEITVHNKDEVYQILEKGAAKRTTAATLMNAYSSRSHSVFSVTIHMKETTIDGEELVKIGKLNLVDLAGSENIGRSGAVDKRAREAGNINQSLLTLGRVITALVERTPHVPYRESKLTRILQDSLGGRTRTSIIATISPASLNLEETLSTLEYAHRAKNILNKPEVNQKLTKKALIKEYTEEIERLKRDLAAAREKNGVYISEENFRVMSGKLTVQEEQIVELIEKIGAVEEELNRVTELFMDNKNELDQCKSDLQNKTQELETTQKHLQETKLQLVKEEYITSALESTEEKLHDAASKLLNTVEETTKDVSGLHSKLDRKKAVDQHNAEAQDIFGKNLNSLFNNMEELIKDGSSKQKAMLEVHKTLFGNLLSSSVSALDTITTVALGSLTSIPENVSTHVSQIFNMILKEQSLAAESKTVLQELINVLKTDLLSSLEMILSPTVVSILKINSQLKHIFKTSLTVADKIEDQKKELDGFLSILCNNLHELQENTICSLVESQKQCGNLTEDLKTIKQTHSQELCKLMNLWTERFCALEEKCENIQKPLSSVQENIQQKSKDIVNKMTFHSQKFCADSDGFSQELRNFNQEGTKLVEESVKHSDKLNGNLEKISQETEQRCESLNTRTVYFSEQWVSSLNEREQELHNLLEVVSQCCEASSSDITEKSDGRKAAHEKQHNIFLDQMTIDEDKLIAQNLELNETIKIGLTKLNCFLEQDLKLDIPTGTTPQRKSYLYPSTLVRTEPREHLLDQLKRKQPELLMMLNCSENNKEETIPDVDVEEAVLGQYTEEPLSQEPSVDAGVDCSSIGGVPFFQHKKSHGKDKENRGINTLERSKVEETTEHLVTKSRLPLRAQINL

[2] = tested on: orthotopic tumor from luciferase-expressing 3691 GSCs; assay: Orthotopic GBM xenograft model with systemic ispinesib; format: in vivo, mice
Description: The tumor was isolated 5 hours later and processed for immunofluorescence to βtubulin with the nuclei counterstained with DAPI. […] 7 days later when positive luminescence signal indicated tumor burden, mice were randomized into one of two treatment groups; vehicle only (DMSO; n=10) or 10 mg/kg ispinesib (n=10) administered on a q4d×6 dosing schedule. Arrows indicate day of vehicle or drug administration.
Subcutaneous or intracranial tumors were fixed overnight in 4% PFA at 4° C., washed in PBS, cryoprotected in 30% sucrose, then embedded in optimal cutting temperature compound (OCT) and stored at −80° C. […] Sections were cut using a LeicaCMXXXX cryostat at 10 μm directly onto slides (Leica Microsystems Inc., Buffalo Grove, Ill.). Sections were postfixed for 15 minutes at room temperature in 4% PFA followed by PBS washes then incubated in blocking solution (5% goat serum, 0.1% Triton X-100 in PBS). Primary antibodies were diluted in blocking solution and used as follows overnight at 4° C.: Sox2 (rabbit, 1:500, Abcam, Cambridge, Mass., USA), atubulin (rat, 1:1000, AbD Serotec, Raleigh, N.C.). Secondary antibodies were Alexa Fluor (1:500, Invitrogen, Grand Island, N.Y., USA) labeled with 488 mixed in blocking solution and incubated for 2 hours at room temperature. DNA was stained using 4′,6-diamidino-2-phenylindole (DAPI, 10 μg/ml, Sigma, St Louis, Mo., USA) diluted in PBS for 5 minutes at room temperature.
To evaluate the efficacy of Eg5 inhibition in a more clinically relevant system, we utilized an orthotopic xenograft model to systemically deliver ispinesib. […] The tumor was sectioned and probed for tubulin to evaluate for the presence of mono-astral spindles, a hallmark of Eg5 inhibition.

Cc1ccc(C(=O)N(CCCN)[C@@H](c2nc3cc(Cl)ccc3c(=O)n2Cc2ccccc2)C(C)C)cc1 [ispinesib, N-(3-amino-propyl)-n-[R-1-(3-benzyl-7-choloro-4-oxo-3,4-dihydroquinazolin-2-yl)-2-methyl-propyl]-4-methyl-benzamide methanesulfonate]
EB1 comet velocity [1]: significant increase
microtubule growth times [1]: reduced microtubule growth times
subG1 population (surrogate marker for apoptosis) (matched GSCs and NSTCs): higher subG1 fraction over NSTCs
selectivity for Eg5 over other kinesins (Eg5): 40,000 times
median survival ([2]; 10 mg/kg q4d×6 intraperitoneal): 36 days
survival versus vehicle ([2]; 10 mg/kg q4d×6 intraperitoneal, p<0.001): significant survival advantage
mono-astral spindles in intracranial tumor ([2]; single 10 mg/kg dose, tumor harvested 5 hours later): numerous cells with mono-astral spindles
